Test results from US6861223B2, “Ribozyme-encoding DNA and a composition containing an oligonucleotide substrate and a method for measuring transcription rates” (priority 1998, dated 2005).
{FAM} = fluorescein (FAM) reporter dye; {TAMRA} = TAMRA quencher dye

Columns and labels:
[1] = tested on: substrate RNA SL1; test: Real time measurement of fluorescence at cleavage of SL1 by HHR1 transcribed in vitro with T7-RNA polymerase; type: biochemical; conditions: 900 nM SL1, 37° C., 535 nm, T7 in-vitro transcription
Procedure: A typical 50 μl reaction batch contained: 40 mM tris HCl, pH 8.0, 50 mM NaCl, 2 mM spermidin, 5 mM dithiothreitol, 5 to 25 mM MgCl2, about 500 nM SL1, 0.2 to 2 μM HHR1-DNA or HHR1mut-DNA, 4mM A/C/G/UTP and 50 units of T7-RNA-polymerase. […] In-vitro transcription was started by the addition of the polymerase, and incubation was carried out at 37° C. while the measurement was taken. • 3. Real Time Measurement of Fluorescence at Cleavage of SL1 by HHR1:
The fluorescence of the transcription batches was measured in an automated manner in an ABI Prism 770 spectrometer (Applied Biosystems, USA), the temperature of which could be adjusted. The spectra in the emission wavelength range of the two dyes (FAM, λmax=518 nm and TAMRA, λmax=582 nm) were recorded in intervals of 7 seconds (excitation energy=488 nm). After an incubation time of 3 hours, the collected data were evaluated by the software contained in the equipment. For a real time control of the individual transcriptions, the fluorescence spectra (range of 500 nm to 660 nm) were projected time-dependently over the spectrum of the reference transcription (with non-functional HHR1mut DNA).

[2] = tested on: FRET substrate (SL1); test: Real time FRET measurement of ribozyme cleavage activity (HHR1 with substrate SL1); type: biochemical; conditions: HHR1 4 nM, 37° C.; SL1 vs S1 (conventional gel/autoradiography method)
Excerpt: As the increase in fluorescence is directly correlated to the cleavage rate, the system is suitable for a sensitive, non-radioactive and fast analysis of ribozyme activities. A FRET substrate (SLI) was constructed on the basis of a known HHR/substrate complex (M. Fedor, O. C. Uhlenbeck, Proc. Natl. Acad. Sci. USA (1990), 87, 1668-1672) and was used for a time-dependent measurement of ribozyme activity (HHR1). […] The Michaelis-Menten parameter of HHR can be obtained in a single experiment by measurement of the cleavage-caused rise in fluorescence at different substrate concentrations.
In order to find out whether the method is suitable for the fast characterization of ribozymes, the activity was measured in parallel batches while various physico-chemical parameters were modified.
FIGS. 3b-d show the dependency of the reaction rate on the pH value, the temperature and the Mg^2+ concentration. […]
Characterization of the cleavage activity at 4 nM HHR1 and 200 or 300 nM SL1. (a) Time-dependent course of cleavage with the reciprocally exponential regression curve (only 1% of all data points measured are depicted). […] (0.0134 nM^−1 min^−1) were also determined.
The real time measurements of the rise in fluorescence caused by the ribozyme were taken in 50 μl reaction batches. The signal measured comprises both the chemical step of cleavage and the release of the cleavage products. […]

| relative fluorescence ΔRn of the fluorophore / fluorescence signal [1] | Substance | Kcat and KM values of FRET substrate compared with 32P labeled substrate S1 [2] |
| --- | --- | --- |
| increased with the incubation times | 5′-TCT AAT ACG ACT CAC TAT A GGGTCCTCTGATGAGGCCGTTAGGCCGAAACTCGT-3′ [HHR1-DNA] | – |
| – | 5′-FAM-ACG AGU CAG GAU U-TAMRA-3′ (ACGAGUCAGGAUU; RNA, 5' {FAM}, 3' {TAMRA}, backbone not given here) [SL1, 5′-FAM and 3′-TAMRA labeled substrate RNA (FRET substrate)] | in the same order of magnitude |
| no influence | 5′-TCT AAT ACG ACT CAC TAT A GGGTCCTCTTAGGAGGCCGTTAGGCCAGAACTCGT-3′ [HHR1mut, reference compound] | – |
